Structures can show the parent of a compound that is named as a salt. Where two headings read alike, the source gives them in different places.

Results on 35 compounds are retold here after patent publication US5382670A, “Platelet activating factor antagonists” (priority 1993, dated 1995).

The experiment concerns the target PAF receptor (Oryctolagus cuniculus, UniProt G1TEI7). In words: PAF receptor binding assay: inhibition of specific [3H]C18-PAF binding to rabbit platelet membranes. The note with it: 0.6 nM [3H]C18-PAF, 60 min, 22-23 °C, Ki from IC50 (Cheng and Prusoff). The protocol:
The ability of representative compounds of the present invention to inhibit PAF activity was determined in an in vitro test using the following method.
Citrated whole rabbit blood was obtained from Pel-Freez (Rogers, AR). Rabbit platelets were prepared by centrifugation and washing. The platelets were lysed by freeze-thawing and sonication; platelet membranes were prepared by centrifugation and washing. Final membrane preparations were stored frozen in 10 mM Tris/5 mM MgCl2 /2 mM EDTA (TME buffer, pH 7.0) with 0.25M sucrose added for membrane stabilization.
The standard PAF receptor binding assay contained 10 μg platelet membrane protein, 0.6 nM [^3 H]C18 -PAF (from Amersham or New England Nuclear; specific activity 120-180 Ci/mmol), with and without test compound, in "binding buffer" consisting of TME with 0.25% bovine serum albumin added (Sigma, RIA grade). The final volume of the assay was 100 μl. The assay was conducted in Millititre-GV™ (Millipore Corp.) filtration plates; incubation time was for 60 minutes at room temperature (22°-23° C.). "Specific binding" was operationally defined as the arithmetic difference between "total binding" of 0.6 nM [^3 H]C18 -PAF (in the abasence of added PAF) and "nonspecific binding" (in the presence of 1 μM PAF). After the prescribed incubation, platelet membranes were filtered under vacuum, and washed with 1 milliliter of "binding buffer". The filters were dried and removed. The bound radioactivity was quantitated with a Berthold TLC-Linear Analyzer model LB2842.
Dose-response curves of inhibition of specific [^3 H]C18 -PAF binding by test compounds were conducted in triplicate, with at least four doses covering the active range. Experiments were repeated at least once. IC50 values (concentration producing 50% inhibition) were determined by point-to-point evaluation. Ki values of inhibitory binding constants were calculated according to the method of Cheng and Prusoff [Biochem. Pharmacol. 22 (1973) 3099-3108] whereby [formula]
The values of Ki for representative compounds of the present invention appear in Table 1.

Setting [1] is: read-out: Ki (PAF Receptor Binding Activity).
[2] abbreviates: Ki (PAF Receptor Binding Activity).

Chain of PAF receptor (G1TEI7 1-342): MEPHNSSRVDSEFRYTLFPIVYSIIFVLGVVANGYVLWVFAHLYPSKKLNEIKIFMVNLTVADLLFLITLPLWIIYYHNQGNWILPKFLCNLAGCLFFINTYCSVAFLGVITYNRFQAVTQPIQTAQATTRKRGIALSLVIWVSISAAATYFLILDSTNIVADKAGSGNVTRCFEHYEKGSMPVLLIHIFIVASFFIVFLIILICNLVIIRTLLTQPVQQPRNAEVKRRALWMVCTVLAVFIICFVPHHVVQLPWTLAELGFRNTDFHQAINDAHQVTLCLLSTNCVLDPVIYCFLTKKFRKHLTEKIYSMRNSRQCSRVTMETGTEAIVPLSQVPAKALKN

One may read the Ki as the dissociation constant of the complex between target and ligand, obtained from inhibition or displacement. With “1-ethoxycarbonyl-3-[2-(3-pyridinyl)thiazolid-4-oyl]indole oxalate [Example 41]”, the Ki under setting [1] turned out to be 4 nM. The same measure, in the same setting: next, `CC(C)(C)OC(=O)n1cc(C(=O)[C@@H]2CS[C@H](c3cccnc3)S2)c2ccccc21` (relative stereo) [Example 29, cis-1-tert-butoxycarbonyl-3-[2-(3-pyridinyl)dithiolan-4-oyl]indole hydrochloride]: 180 nM; `CC(C)(C)OC(=O)n1cc(C(=O)[C@@H]2CS[C@@H](c3cccnc3)S2)c2ccccc21` (relative stereo) [Example 30, trans 1-tert-butoxycarbonyl-3-[2-(3-pyridinyl)dithiolan-4-oyl]indole oxalate]: 900 nM; `CN(C)C(=O)n1cc(C(=O)[C@@H]2CS[C@H](c3cccnc3)N2C=O)c2ccccc21` (relative stereo) [Example 97, cis-1-Dimethylcarbamoyl-3-[2-(3-pyridinyl)-3-formylthiazolid-4-oyl]indole]: 150 nM.

On to `CN(C)C(=O)n1cc(C(=O)[C@@H]2CS[C@H](c3cccnc3)N2C(=O)C(F)(F)F)c2ccccc21` (relative stereo) [Example 104, cis-1-dimethylcarbamoyl-3-[2-(3-pyridinyl)-3-trifluoroacetylthiazolid-4-oyl]indole], for which the Ki under setting [1] worked out at 650 nM.

As to `CN(C)C(=O)n1cc(C(=O)[C@@H]2CS[C@H](c3cccnc3)N2C(=O)C(F)(F)F)c2ccccc21` (relative stereo) [Example 105, cis-1-dimethylcarbamoyl-3-[2-(3-pyridinyl)-3-trifluoroacetylthiazolid-4-oyl]indole oxalate], under setting [1], the Ki was found to be 175 nM. On to `CN(C)C(=O)n1cc(C(=O)[C@@H]2CS[C@@H](c3cccnc3)N2C(=O)C(F)(F)F)c2ccccc21` (relative stereo) [Example 106, trans-1-dimethylcarbamoyl-3-[2-(3-pyridinyl)-3-trifluoroacetylthiazolid-4-oyl]indole], for which the Ki under setting [1] was found to be 80 nM.

For `CN(C)C(=O)n1cc(C(=O)[C@@H]2CS[C@@H](c3cccnc3)N2C(=O)C(F)(F)F)c2ccccc21` (relative stereo) [Example 107, trans-1-dimethylcarbamoyl 1-34 2-(3-pyridinyl)-3-trifluoroacetylthiazolid-4-oyl]indole oxalate], the Ki under setting [1] was 75 nM.

Take `O=C(c1c[nH]c2ccccc12)C1CSC(c2cccnc2)N1C(=O)C(F)(F)F` (single isomer, unassigned; isomer 1) [Example 102, 3-[2-(3-pyridinyl)-3-trifluoroacetylthiazolid-4-oyl]indole,isomer 1]: the Ki under setting [1] was 2700 nM. Still for that read-out and setting: next, `CN(C)C(=O)n1cc(C(=O)C2CSC(c3cccnc3)N2C(=O)C(F)(F)F)c2ccc(OCc3ccccc3)cc21` (single isomer, unassigned; isomer 1) [Example 108, 1-dimethylcarbamoyl-3-[2-(3-pyridinyl)-3-trifluoroacetylthiazolid-4-oyl]-6-phenylmethoxyindole, isomer 1]: 250 nM. Same read-out and setting: then `O=C(c1c[nH]c2ccccc12)C1CSC(c2cccnc2)N1C(=O)C(F)(F)F` (single isomer, unassigned; isomer 2) [Example 103, 3-[2-(3-pyridinyl)-3-trifluoroacetylthiazolid-4-oyl]indole, isomer 2], with 2800 nM; and `CN(C)C(=O)n1cc(C(=O)C2CSC(c3cccnc3)N2C(=O)C(F)(F)F)c2ccc(OCc3ccccc3)cc21` (single isomer, unassigned; isomer 2) [Example 109, 1-dimethylcarbamoyl-3-[2-[3-pyridinyl)-3-trifluoroacetylthiazolid-4-oyl]-6-phenylmethoxyindole, isomer 2], with 70 nM.

As for `O=C(C1CSC(c2cccnc2)N1)n1ccc2cc(OCc3ccccc3)ccc21` (centres unmarked) [Example 1, 1-[2-(3-pyridinyl)thiazolid-4-oyl]-5-phenylmethoxyindole], the Ki under setting [1] was 7 nM.

Compound `Cc1ccc2c(c1)cc(C)n2C(=O)C1CSC(c2cccnc2)N1` (centres unmarked) [Example 4, 1-[2-(3-pyridinyl)thiazolid-4-oyl]-2,5-dimethylindole] had a Ki under setting [2] of 46 nM. For the compound `O=C(C1CSC(c2cccnc2)N1)n1ccc2c(Cl)cccc21` (centres unmarked) [Example 5, 1-[2-(3-pyridinyl)thiazolid-4-oyl]-4-chloroindole dihydrochloride], the Ki under setting [1] was 33 nM. In the case of `O=C(C1CSC(c2cccnc2)N1)n1ccc2c(Br)cccc21` (centres unmarked) [Example 6, 1-[2-(3-pyridinyl)thiazolid-4-oyl]-4-bromoindole dihydrochloride], the Ki under setting [2] came out at 53 nM.

`O=C(c1ccccc1)c1cccc2c1ccn2C(=O)C1CSC(c2cccnc2)N1` (centres unmarked) [Example 7, 1-[2-(3-pyridinyl)thiazolid-4-oyl]-4-benzoylindole dihydrochloride]: under setting [1], the Ki came out at 12 nM. Still for that read-out and setting: then `COc1cc(C(=O)c2cccc3c2ccn3C(=O)C2CSC(c3cccnc3)N2)cc(OC)c1OC` (centres unmarked) [Example 8, 1-[2-(3-pyridinyl)thiazolid-4-oyl]-4-(3,4,5-trimethoxybenzoyl)indole], with 4 nM.

In the case of `O=C(C1CSC(c2cccnc2)N1)n1ccc2cc(Cl)ccc21` (centres unmarked) [Example 9, 1-[2-(3-pyridinyl)thiazolid-4-oyl]-5-chloroindole dihydrochloride], the affinity under setting [2] corresponds to a Ki of 140 nM. Still for that read-out and setting: then `N#Cc1ccc2c(ccn2C(=O)C2CSC(c3cccnc3)N2)c1` (centres unmarked) [Example 10, 1-[2-(3-pyridinyl)thiazolid-4-oyl]-5-cyanoindole dihydrochloride], with 2100 nM. As for `O=C(C1CSC(c2cccnc2)N1)n1ccc2cc(OCc3ccccc3)ccc21` (centres unmarked) [Example 11, 1-(2-(3-pyridinyl)thiazolid-4-oyl)-5-phenylmethoxyindole dihydrochloride], the Ki under setting [1] was 15 nM. Compound `COc1cc2ccn(C(=O)C3CSC(c4cccnc4)N3)c2cc1OC` (centres unmarked) [Example 13, 1-[2-(3-pyridinyl)thiazolid-4-oyl]-5,6-dimethoxyindole dihydrochloride] showed a Ki under setting [2] of 2400 nM. `O=C(C1CSC(c2cccnc2)N1)n1ccc2ccc(F)cc21` (centres unmarked) [Example 14, 1-[2-(3-pyridinyl)thiazolid-4-oyl]-6-fluoroindole] yielded a Ki under setting [2] of 67 nM.

Under setting [2], `O=C(C1CSC(c2cccnc2)N1)n1ccc2ccc(Br)cc21` (centres unmarked) [Example 16, 1-[2-(3-pyridinyl)thiazolid-4-oyl]-6-bromoindole] registered an inhibition constant Ki of 25 nM. For `O=C(c1ccccc1)c1ccc2ccn(C(=O)C3CSC(c4cccnc4)N3)c2c1` (centres unmarked) [Example 17, 1-[2-(3-pyridinyl)thiazolid-4-oyl]-6-benzoylindole], the Ki under setting [1] was determined as 93 nM. Same read-out and setting: next, `O=C(C1CSC(c2cccnc2)N1)n1ccc2ccc(OCc3ccccc3)cc21` (centres unmarked) [Example 18, 1-(2-(3-pyridinyl)thiazolid-4-oyl)-6-phenylmethoxyindole oxalate]: 52 nM. The compound `O=C(C1CSC(c2cccnc2)N1)n1ccc2cccnc21` (centres unmarked) [Example 19, 1-[2-(3-pyridinyl)thiazolid-4-oyl]-7-azaindole] displayed a Ki under setting [2] of 12500 nM. As to `O=C(c1c[nH]c2ccccc12)C1CSC(c2cccnc2)N1` (centres unmarked) [Example 20, 3-[2-(3-pyridinyl)thiazolid-4-oyl]indole oxalate], the affinity under setting [2] corresponds to a Ki of 4 nM. For `Cc1c(C(=O)C2CSC(c3cccnc3)N2)c2ccccc2n1C` (centres unmarked) [Example 21, 1.2-dimethyl-3-[2-(3-pyridinyl)thiazolid-4-oyl]indole oxalate], under setting [1], the Ki stood at 105 nM. As for `Cn1cc(C(=O)C2CSC(c3cccnc3)N2)c2ccccc21` (centres unmarked) [Example 22, 1-methyl-3-[2-3-pyridinyl)thiazolid-4-oyl]indole dihydrochloride], affinity under setting [2] was put at a Ki of 13 nM. Consider `O=C(c1c[nH]c2ccc(OCc3ccccc3)cc12)C1CSC(c2cccnc2)N1` (centres unmarked) [Example 23, 3-(2-(3-pyridinyl)thiazolid-4-oyl])-5-phenylmethoxyindole oxalate], for which, under setting [1], the Ki was determined as 23 nM. On the same count and under the same terms, next, `O=C(c1c[nH]c2cccc(OCc3ccccc3)c12)C1CSC(c2cccnc2)N1` (centres unmarked) [Example 24, 3-[2-(3-pyridinyl)thiazolid-4-oyl-4-phenylmethoxyindole oxalate]: 13 nM.

Under setting [2], `Cc1cccc2c(C(=O)C3CSC(c4cccnc4)N3)c[nH]c12` (centres unmarked) [Example 25, 3-(2-(3-pyridinyl)thiazolid-4-oyl)-7-methylindole oxalate] gave a Ki of 5 nM.

Take `O=C(C1CSC(c2cccnc2)S1)n1ccc2ccccc21` (centres unmarked) [Example 26, 1-[2-(3-pyridinyl)dithiolan-4-oyl]indole oxalate]: the Ki under setting [1] worked out at 360 nM. The compound `CCn1cc(C(=O)C2CSC(c3cccnc3)N2)c2ccccc21` (centres unmarked) [Example 27, 1-ethyl-3-[2-(3-pyridinyl)thiazolid-4-oyl]indole oxalate] registered a Ki under setting [2] of 6 nM.
